Experimental data reported in ChEMBL document CHEMBL1681733, “Synthesis and evaluation of [(1R)-1-amino-2-(2,5-difluorophenyl)ethyl]cyclohexanes and 4-[(1R)-1-amino-2-(2,5-difluorophenyl)ethyl]piperidines as DPP-4 inhibitors” (Bioorg Med Chem Lett, 2011).

Key:
Dipeptidyl peptidase 2 = Dipeptidyl peptidase 2 (Homo sapiens, UniProt Q9UHL4); test: Inhibition of QPP
Dipeptidyl peptidase 4 = Dipeptidyl peptidase 4 (Homo sapiens, UniProt P27487)
Prolyl endopeptidase FAP = molecular target: T1, Prolyl endopeptidase FAP (Homo sapiens, UniProt Q12884); test: Inhibition of FAP
T1 sequence (Q12884 whole entry): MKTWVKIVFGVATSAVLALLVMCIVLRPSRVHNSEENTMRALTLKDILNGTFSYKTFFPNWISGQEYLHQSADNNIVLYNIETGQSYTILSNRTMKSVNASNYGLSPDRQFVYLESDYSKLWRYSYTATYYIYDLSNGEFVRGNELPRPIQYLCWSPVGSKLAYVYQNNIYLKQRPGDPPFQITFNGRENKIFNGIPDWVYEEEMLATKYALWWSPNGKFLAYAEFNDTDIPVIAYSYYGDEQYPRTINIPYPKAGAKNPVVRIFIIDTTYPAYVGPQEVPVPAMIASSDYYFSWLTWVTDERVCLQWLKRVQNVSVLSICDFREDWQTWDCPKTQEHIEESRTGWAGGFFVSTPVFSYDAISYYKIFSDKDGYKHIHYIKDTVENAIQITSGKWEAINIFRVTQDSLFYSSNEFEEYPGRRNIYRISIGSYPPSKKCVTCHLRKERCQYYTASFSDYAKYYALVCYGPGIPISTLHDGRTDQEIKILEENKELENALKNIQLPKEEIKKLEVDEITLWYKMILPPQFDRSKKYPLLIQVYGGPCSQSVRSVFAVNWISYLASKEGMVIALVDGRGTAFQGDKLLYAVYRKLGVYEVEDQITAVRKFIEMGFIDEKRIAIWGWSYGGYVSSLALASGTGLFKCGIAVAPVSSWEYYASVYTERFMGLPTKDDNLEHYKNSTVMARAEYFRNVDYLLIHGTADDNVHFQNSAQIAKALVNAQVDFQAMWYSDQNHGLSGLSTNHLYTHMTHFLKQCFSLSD

Dipeptidyl peptidase 8 = Dipeptidyl peptidase 8 (Homo sapiens, UniProt Q6V1X1); test: Inhibition of DPP8
Chain of Dipeptidyl peptidase 8 (Q6V1X1 whole entry): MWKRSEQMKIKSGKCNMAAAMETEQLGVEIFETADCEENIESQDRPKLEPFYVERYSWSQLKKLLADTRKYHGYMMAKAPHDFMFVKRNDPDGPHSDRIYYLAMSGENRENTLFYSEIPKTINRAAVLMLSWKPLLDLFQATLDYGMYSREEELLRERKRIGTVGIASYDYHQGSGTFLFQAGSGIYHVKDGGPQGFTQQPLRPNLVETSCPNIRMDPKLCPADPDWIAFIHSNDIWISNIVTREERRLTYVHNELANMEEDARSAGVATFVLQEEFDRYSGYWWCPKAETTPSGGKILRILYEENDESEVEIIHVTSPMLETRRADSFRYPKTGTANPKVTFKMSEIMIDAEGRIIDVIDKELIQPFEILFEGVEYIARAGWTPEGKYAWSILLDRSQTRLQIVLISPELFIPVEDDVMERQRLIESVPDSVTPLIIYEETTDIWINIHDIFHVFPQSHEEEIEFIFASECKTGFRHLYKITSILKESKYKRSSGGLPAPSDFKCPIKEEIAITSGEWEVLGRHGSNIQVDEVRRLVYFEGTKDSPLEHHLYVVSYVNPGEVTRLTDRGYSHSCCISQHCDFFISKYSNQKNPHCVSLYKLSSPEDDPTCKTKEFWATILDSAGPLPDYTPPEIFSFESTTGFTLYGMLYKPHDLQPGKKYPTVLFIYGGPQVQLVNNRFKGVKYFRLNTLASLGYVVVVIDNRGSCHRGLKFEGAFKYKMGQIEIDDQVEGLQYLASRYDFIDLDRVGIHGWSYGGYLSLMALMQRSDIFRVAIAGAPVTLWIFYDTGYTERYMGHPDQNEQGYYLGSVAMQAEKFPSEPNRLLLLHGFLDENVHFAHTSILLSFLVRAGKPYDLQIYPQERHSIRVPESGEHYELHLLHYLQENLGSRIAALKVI

Dipeptidyl peptidase 9 = Dipeptidyl peptidase 9 (Homo sapiens, UniProt Q86TI2); test: Inhibition of DPP9
Chain of Dipeptidyl peptidase 9 (Q86TI2 whole entry): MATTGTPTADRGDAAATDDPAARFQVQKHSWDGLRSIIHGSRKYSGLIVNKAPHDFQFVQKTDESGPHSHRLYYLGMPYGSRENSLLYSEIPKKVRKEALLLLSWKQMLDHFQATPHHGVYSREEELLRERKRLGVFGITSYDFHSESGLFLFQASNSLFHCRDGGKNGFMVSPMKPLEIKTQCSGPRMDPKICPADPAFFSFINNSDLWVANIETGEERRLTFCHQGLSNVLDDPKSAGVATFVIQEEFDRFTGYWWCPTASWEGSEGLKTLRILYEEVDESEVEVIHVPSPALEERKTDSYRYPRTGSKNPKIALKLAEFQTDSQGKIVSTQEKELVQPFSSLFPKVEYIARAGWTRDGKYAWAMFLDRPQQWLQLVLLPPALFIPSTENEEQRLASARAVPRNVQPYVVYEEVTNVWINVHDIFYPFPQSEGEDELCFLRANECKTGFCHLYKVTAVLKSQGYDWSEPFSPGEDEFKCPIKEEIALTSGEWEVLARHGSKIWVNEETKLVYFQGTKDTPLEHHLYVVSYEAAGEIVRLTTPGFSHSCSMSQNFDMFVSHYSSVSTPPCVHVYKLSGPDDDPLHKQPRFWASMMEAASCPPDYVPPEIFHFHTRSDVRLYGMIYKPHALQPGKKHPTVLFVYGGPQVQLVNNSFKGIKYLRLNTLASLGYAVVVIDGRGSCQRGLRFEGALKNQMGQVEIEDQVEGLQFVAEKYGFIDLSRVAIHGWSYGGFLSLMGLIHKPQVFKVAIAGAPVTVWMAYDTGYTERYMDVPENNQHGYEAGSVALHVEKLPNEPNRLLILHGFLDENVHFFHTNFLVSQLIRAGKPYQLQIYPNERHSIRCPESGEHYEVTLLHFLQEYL

Chain of Dipeptidyl peptidase 4 (P27487 whole entry): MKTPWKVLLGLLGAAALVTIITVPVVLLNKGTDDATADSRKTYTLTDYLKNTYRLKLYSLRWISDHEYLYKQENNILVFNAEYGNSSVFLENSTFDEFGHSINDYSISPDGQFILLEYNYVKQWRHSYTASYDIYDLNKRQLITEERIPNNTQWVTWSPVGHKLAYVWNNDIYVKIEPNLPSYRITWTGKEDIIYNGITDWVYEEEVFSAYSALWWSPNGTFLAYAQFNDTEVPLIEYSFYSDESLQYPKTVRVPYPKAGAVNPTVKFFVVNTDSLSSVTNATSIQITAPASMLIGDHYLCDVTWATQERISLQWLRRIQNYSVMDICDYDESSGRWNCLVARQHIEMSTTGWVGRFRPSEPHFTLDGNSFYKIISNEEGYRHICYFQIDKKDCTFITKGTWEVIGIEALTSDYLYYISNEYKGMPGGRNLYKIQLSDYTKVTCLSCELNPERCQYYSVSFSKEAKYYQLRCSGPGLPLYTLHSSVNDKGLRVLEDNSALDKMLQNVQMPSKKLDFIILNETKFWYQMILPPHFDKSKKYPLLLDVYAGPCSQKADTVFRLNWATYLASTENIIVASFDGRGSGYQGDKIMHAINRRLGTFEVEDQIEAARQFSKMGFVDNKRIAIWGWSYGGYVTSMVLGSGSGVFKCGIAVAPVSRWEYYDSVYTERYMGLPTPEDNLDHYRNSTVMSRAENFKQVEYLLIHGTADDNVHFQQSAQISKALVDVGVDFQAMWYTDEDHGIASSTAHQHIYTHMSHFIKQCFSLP

SMILES | IC50 (Dipeptidyl peptidase 2) | IC50 (Dipeptidyl peptidase 4) | IC50 (Prolyl endopeptidase FAP) | IC50 (Dipeptidyl peptidase 8) | IC50 (Dipeptidyl peptidase 9)
Cn1ccc(C(=O)N(C)[C@H]2CC[C@H]([C@H](N)Cc3cc(F)ccc3F)CC2)n1 | 21 µM | 0.14 µM | > 35 µM | > 100 µM | –
CC(=O)N(Cc1ccccc1)[C@H]1CC[C@H]([C@H](N)Cc2cc(F)ccc2F)CC1 | 17 µM | 0.11 µM | > 35 µM | > 100 µM | –
N[C@H](Cc1cc(F)ccc1F)[C@H]1CC[C@@H](N2CCC(F)(F)C2)CC1 | – | – | > 35 µM | – | –
N[C@H](Cc1cc(F)ccc1F)[C@H]1CC[C@H](N2CCC(F)(F)C2)CC1 | – | – | > 35 µM | – | –
N[C@H](Cc1cc(F)ccc1F)[C@H]1CC[C@@H](N2CCn3c(nnc3C(F)(F)F)C2)CC1 | > 100 µM | 0.28 µM | > 35 µM | – | –
N[C@H](Cc1cc(F)ccc1F)[C@H]1CC[C@@H](N2CCCCC2)CC1 | – | – | > 35 µM | – | –
N[C@H](Cc1cc(F)ccc1F)[C@H]1CC[C@H](N2CCCCC2)CC1 | – | – | > 35 µM | – | –
NC(=O)C1CCCN([C@H]2CC[C@@H]([C@H](N)Cc3cc(F)ccc3F)CC2)C1 (stereo not given in full) | – | – | > 35 µM | – | –
NC(=O)[C@H]1CCCN([C@H]2CC[C@H]([C@H](N)Cc3cc(F)ccc3F)CC2)C1 | – | – | > 35 µM | – | –
NC(=O)O[C@@H]1CCCN([C@H]2CC[C@H]([C@H](N)Cc3cc(F)ccc3F)CC2)C1 | – | – | > 35 µM | – | –
N[C@H](Cc1cc(F)ccc1F)[C@H]1CC[C@H](N2CCC[C@@H](O)C2)CC1 | > 100 µM | 0.27 µM | > 35 µM | – | –
N[C@H](Cc1cc(F)ccc1F)[C@H]1CC[C@H](NCCCC(F)(F)F)CC1 | – | – | > 35 µM | – | –
CN(Cc1ccc(C#N)cc1)[C@H]1CC[C@H]([C@H](N)Cc2cc(F)ccc2F)CC1 | 12 µM | 0.29 µM | > 35 µM | > 100 µM | –
CN(Cc1cccc(C#N)c1)[C@H]1CC[C@H]([C@H](N)Cc2cc(F)ccc2F)CC1 | 14 µM | 0.22 µM | > 35 µM | > 100 µM | –
CCN(Cc1ccccc1)[C@H]1CC[C@H]([C@H](N)Cc2cc(F)ccc2F)CC1 | – | – | > 35 µM | – | –
CS(=O)(=O)N1CCC([C@H](N)Cc2cc(F)ccc2F)CC1 | – | – | > 35 µM | – | –
N[C@H](Cc1cc(F)ccc1F)C1CCN(c2ccccn2)CC1 | – | – | > 35 µM | – | –
N[C@H](Cc1cc(F)ccc1F)C1CCN(c2cccnc2)CC1 | – | – | > 35 µM | – | –
N[C@H](Cc1cc(F)ccc1F)C1CCN(c2ccncc2)CC1 | – | – | > 35 µM | – | –
N#Cc1cncc(N2CCC([C@H](N)Cc3cc(F)ccc3F)CC2)c1 | – | – | > 35 µM | – | –
N[C@H](Cc1cc(F)ccc1F)C1CCN(c2ccc(F)nc2)CC1 | – | – | > 35 µM | – | –
CCOC(=O)c1cncc(N2CCC([C@H](N)Cc3cc(F)ccc3F)CC2)c1 | – | – | > 35 µM | – | –
N[C@H](Cc1cc(F)ccc1F)C1CCN(c2ncccn2)CC1 | – | – | > 35 µM | – | –
COc1ncc(N2CCC([C@H](N)Cc3cc(F)ccc3F)CC2)cn1 | – | – | > 35 µM | – | –
N[C@H](Cc1cc(F)ccc1F)C1CCN(c2cnc(=O)[nH]c2)CC1 | – | – | > 35 µM | – | –
COC(=O)C1CCCC(N2CCC([C@H](N)Cc3cc(F)ccc3F)CC2)C1 (stereo not given in full) | – | – | > 35 µM | – | –
N[C@H](Cc1cc(F)ccc1F)C1CCN(C2CCCC(C(=O)O)C2)CC1 (stereo not given in full) | – | – | > 35 µM | – | –
NC(=O)C1CCCC(N2CCC([C@H](N)Cc3cc(F)ccc3F)CC2)C1 (stereo not given in full) | – | – | > 35 µM | – | –
N[C@H](Cc1cc(F)ccc1F)[C@H]1CC[C@H](N(CCCC(F)(F)F)Cc2ccccc2)CC1 (mixture of isomers) | 23 µM | 0.69 µM | > 35 µM | > 100 µM | –
NC(=O)C1CCCN([C@H]2CC[C@H]([C@H](N)Cc3cc(F)ccc3F)CC2)C1 (single isomer, unassigned) | – | – | > 35 µM | – | –

The remaining lines, values ahead:

IC50 (Dipeptidyl peptidase 2) | IC50 (Dipeptidyl peptidase 4) | IC50 (Prolyl endopeptidase FAP) | IC50 (Dipeptidyl peptidase 8) | IC50 (Dipeptidyl peptidase 9) | SMILES
18 µM | 0.33 µM | > 35 µM | – | – | N[C@H](Cc1cc(F)ccc1F)[C@H]1CC[C@H](N2CCn3c(nnc3C(F)(F)F)C2)CC1
– | – | > 35 µM | – | – | N[C@H](C(=O)N1CCSC1)[C@H]1CC[C@H](NC(=O)c2ccc(OC(F)(F)F)cc2)CC1
– | – | > 35 µM | – | – | CN([C@H]1CC[C@H]([C@H](N)Cc2cc(F)ccc2F)CC1)S(=O)(=O)c1ccccc1
– | – | > 35 µM | – | – | CN([C@H]1CC[C@H]([C@H](N)Cc2cc(F)ccc2F)CC1)S(=O)(=O)c1ccccc1C(F)(F)F
9.6 µM | 0.085 µM | > 35 µM | > 69 µM | – | CN([C@H]1CC[C@H]([C@H](N)Cc2cc(F)ccc2F)CC1)S(=O)(=O)c1cccc(C#N)c1
23 µM | 0.18 µM | > 35 µM | > 100 µM | – | CN([C@H]1CC[C@H]([C@H](N)Cc2cc(F)ccc2F)CC1)S(=O)(=O)c1ccc(C#N)cc1
– | – | > 35 µM | – | – | CN([C@H]1CC[C@H]([C@H](N)Cc2cc(F)ccc2F)CC1)S(=O)(=O)c1ccc(N)cc1
29 µM | 0.4 µM | > 35 µM | > 100 µM | > 100 µM | CN([C@H]1CC[C@H]([C@H](N)Cc2cc(F)ccc2F)CC1)S(=O)(=O)c1ccc(OC(F)(F)F)cc1
– | – | > 35 µM | – | – | CN([C@H]1CC[C@H]([C@H](N)Cc2cc(F)ccc2F)CC1)S(=O)(=O)c1ccc(C(N)=O)cc1
– | – | > 35 µM | – | – | CN([C@H]1CC[C@H]([C@H](N)Cc2cc(F)ccc2F)CC1)S(=O)(=O)c1ccc(F)cc1F
– | – | > 35 µM | – | – | CN([C@H]1CC[C@H]([C@H](N)Cc2cc(F)ccc2F)CC1)S(=O)(=O)c1ccc(-c2cnco2)cc1
57 µM | 0.28 µM | > 35 µM | – | > 100 µM | Cc1[nH]ncc1S(=O)(=O)N(C)[C@H]1CC[C@H]([C@H](N)Cc2cc(F)ccc2F)CC1
> 100 µM | 0.5 µM | > 35 µM | > 100 µM | > 100 µM | Cn1cnc(S(=O)(=O)N(C)[C@H]2CC[C@H]([C@H](N)Cc3cc(F)ccc3F)CC2)c1
43 µM | 0.17 µM | > 35 µM | > 100 µM | > 100 µM | Cc1oncc1S(=O)(=O)N(C)[C@H]1CC[C@H]([C@H](N)Cc2cc(F)ccc2F)CC1
– | – | > 35 µM | – | – | CC(=O)Nc1nc(C)c(S(=O)(=O)N(C)[C@H]2CC[C@H]([C@H](N)Cc3cc(F)ccc3F)CC2)s1
35 µM | 0.11 µM | > 35 µM | > 100 µM | – | CN([C@H]1CC[C@H]([C@H](N)Cc2cc(F)ccc2F)CC1)S(=O)(=O)c1cccnc1

IC50 (Dipeptidyl peptidase 2) | IC50 (Dipeptidyl peptidase 4) | IC50 (Prolyl endopeptidase FAP) | IC50 (Dipeptidyl peptidase 8) | IC50 (Dipeptidyl peptidase 9) | SMILES
29 µM | 0.038 µM | > 35 µM | > 100 µM | – | CCN([C@H]1CC[C@H]([C@H](N)Cc2cc(F)ccc2F)CC1)S(=O)(=O)c1c(C)noc1C
10 µM | 0.67 µM | > 35 µM | > 100 µM | – | Cc1noc(C)c1S(=O)(=O)N(Cc1ccccc1)[C@H]1CC[C@H]([C@H](N)Cc2cc(F)ccc2F)CC1
40 µM | 0.57 µM | > 35 µM | > 100 µM | > 100 µM | Cc1noc(C)c1S(=O)(=O)N(CCCC(F)(F)F)[C@H]1CC[C@H]([C@H](N)Cc2cc(F)ccc2F)CC1
68 µM | 0.26 µM | > 35 µM | > 100 µM | – | CCN([C@H]1CC[C@H]([C@H](N)Cc2cc(F)ccc2F)CC1)S(C)(=O)=O
11 µM | 1.3 µM | > 35 µM | > 100 µM | – | CS(=O)(=O)N(Cc1ccccc1)[C@H]1CC[C@H]([C@H](N)Cc2cc(F)ccc2F)CC1
86 µM | 2.4 µM | > 35 µM | > 100 µM | > 100 µM | CS(=O)(=O)N(CCCC(F)(F)F)[C@H]1CC[C@H]([C@H](N)Cc2cc(F)ccc2F)CC1
> 100 µM | 0.99 µM | > 35 µM | – | – | CC(=O)N(C)[C@H]1CC[C@@H]([C@H](N)Cc2cc(F)ccc2F)CC1
> 100 µM | 0.13 µM | > 35 µM | > 100 µM | – | CC(C)C(=O)N(C)[C@H]1CC[C@H]([C@H](N)Cc2cc(F)ccc2F)CC1
– | – | > 35 µM | – | – | CN(C(=O)C(C)(C)C)[C@H]1CC[C@H]([C@H](N)Cc2cc(F)ccc2F)CC1
> 100 µM | 0.73 µM | > 35 µM | > 100 µM | – | CN(C(=O)CCN)[C@H]1CC[C@H]([C@H](N)Cc2cc(F)ccc2F)CC1
58 µM | 0.14 µM | > 35 µM | > 100 µM | – | CN(C(=O)c1cccnc1)[C@H]1CC[C@H]([C@H](N)Cc2cc(F)ccc2F)CC1
– | – | > 35 µM | – | – | CN(C(=O)c1csnn1)[C@H]1CC[C@H]([C@H](N)Cc2cc(F)ccc2F)CC1
58 µM | 0.12 µM | > 35 µM | > 100 µM | – | CN(C(=O)c1ccno1)[C@H]1CC[C@H]([C@H](N)Cc2cc(F)ccc2F)CC1
– | – | > 35 µM | – | – | CN(C(=O)c1c[nH]c2ccccc12)[C@H]1CC[C@H]([C@H](N)Cc2cc(F)ccc2F)CC1
– | – | > 35 µM | – | – | Cc1noc(C)c1C(=O)N(C)[C@H]1CC[C@H]([C@H](N)Cc2cc(F)ccc2F)CC1
